# Source: ChEMBL document CHEMBL1133189, “Novel conformationally constrained tropane analogues by 6-endo-trig radical cyclization and stille coupling - switch of activity toward the serotonin and/or norepinephrine transporter” (J Med Chem, 2000)
# Assays:
# [1] = target: Sodium-dependent dopamine transporter (Rattus norvegicus, UniProt P23977); assay: Inhibition of reuptake of [3H]DA at Dopamine transporter (DAT)
# [2] = target: Norepinephrine transporter (Rattus norvegicus, UniProt Q9WTR4); assay: Inhibition of reuptake of [3H]-NE at Norepinephrine transporter
# Sequence of Norepinephrine transporter (Q9WTR4 whole entry): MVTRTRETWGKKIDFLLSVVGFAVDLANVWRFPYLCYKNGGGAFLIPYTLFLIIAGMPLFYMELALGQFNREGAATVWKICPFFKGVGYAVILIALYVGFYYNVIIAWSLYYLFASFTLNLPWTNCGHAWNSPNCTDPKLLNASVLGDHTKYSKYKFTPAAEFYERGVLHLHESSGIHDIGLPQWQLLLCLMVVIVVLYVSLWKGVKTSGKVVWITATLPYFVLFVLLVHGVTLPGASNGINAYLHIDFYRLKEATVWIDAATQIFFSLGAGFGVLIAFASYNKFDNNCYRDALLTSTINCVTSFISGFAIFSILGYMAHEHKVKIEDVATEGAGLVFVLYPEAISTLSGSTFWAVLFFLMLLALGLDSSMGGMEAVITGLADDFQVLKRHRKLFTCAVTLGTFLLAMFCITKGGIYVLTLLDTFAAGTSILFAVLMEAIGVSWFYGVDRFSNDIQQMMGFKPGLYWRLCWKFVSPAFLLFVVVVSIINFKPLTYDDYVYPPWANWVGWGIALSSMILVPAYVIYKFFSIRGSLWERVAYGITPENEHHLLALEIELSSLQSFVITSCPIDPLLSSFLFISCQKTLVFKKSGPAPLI
# [3] = target: Sodium-dependent serotonin transporter (Rattus norvegicus, UniProt P31652); assay: Inhibition of reuptake of [3H]5-HT at serotonin transporter
# Sequence of Sodium-dependent serotonin transporter (Rattus norvegicus, UniProt P31652) (P31652 whole entry): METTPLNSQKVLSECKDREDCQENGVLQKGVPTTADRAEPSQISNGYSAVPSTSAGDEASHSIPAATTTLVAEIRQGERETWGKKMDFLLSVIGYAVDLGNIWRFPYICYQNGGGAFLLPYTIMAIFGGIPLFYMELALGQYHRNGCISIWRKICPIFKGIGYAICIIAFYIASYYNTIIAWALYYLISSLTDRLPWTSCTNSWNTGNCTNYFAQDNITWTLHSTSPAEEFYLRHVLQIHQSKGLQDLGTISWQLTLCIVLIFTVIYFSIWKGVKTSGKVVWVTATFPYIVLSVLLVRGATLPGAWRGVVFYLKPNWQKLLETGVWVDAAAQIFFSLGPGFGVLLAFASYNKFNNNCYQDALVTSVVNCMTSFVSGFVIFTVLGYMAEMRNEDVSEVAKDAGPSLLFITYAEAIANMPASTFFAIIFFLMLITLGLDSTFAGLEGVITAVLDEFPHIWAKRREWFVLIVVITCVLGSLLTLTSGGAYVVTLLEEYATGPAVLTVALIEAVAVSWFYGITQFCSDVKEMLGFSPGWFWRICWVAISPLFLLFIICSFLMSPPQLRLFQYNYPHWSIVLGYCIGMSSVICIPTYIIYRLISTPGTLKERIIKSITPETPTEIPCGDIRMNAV
# [4] = target: T1, Sodium-dependent dopamine transporter (Homo sapiens, UniProt Q01959); assay: Compound was evaluated for inhibition of [3H]DA uptake in HEK-hDAT cells expressing Human dopamine Transporter; type: cell-based
# T1 sequence (Q01959 whole entry): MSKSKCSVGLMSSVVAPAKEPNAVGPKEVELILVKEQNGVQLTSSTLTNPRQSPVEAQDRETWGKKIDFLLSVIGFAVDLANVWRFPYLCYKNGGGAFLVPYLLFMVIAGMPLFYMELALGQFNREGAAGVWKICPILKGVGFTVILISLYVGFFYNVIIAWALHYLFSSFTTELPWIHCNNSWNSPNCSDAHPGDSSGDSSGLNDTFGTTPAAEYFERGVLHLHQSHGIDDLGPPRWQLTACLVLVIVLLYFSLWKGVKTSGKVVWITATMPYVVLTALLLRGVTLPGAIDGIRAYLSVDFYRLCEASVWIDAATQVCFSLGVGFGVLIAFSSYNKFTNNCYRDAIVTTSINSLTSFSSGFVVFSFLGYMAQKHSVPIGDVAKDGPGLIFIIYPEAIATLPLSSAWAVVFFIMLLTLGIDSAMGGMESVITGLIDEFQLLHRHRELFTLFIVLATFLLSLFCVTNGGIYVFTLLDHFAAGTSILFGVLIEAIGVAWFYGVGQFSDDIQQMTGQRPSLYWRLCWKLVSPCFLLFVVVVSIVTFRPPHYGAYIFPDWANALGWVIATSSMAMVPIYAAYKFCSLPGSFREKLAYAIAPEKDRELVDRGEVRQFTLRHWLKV
# [5] = target: T1, Sodium-dependent dopamine transporter; assay: Compound was evaluated for binding affinity to dopamine transporter using [125I]RTI-55 as a radioligand in HEK cells expressing human transporters.; type: cell-based, HEK293
# [6] = target: T2, Sodium-dependent noradrenaline transporter (Homo sapiens, UniProt P23975); assay: Compound was evaluated for inhibition of [3H]NE uptake in HEK-hNET cells expressing Human norepinephrine transporter; type: cell-based
# T2 sequence (P23975 whole entry): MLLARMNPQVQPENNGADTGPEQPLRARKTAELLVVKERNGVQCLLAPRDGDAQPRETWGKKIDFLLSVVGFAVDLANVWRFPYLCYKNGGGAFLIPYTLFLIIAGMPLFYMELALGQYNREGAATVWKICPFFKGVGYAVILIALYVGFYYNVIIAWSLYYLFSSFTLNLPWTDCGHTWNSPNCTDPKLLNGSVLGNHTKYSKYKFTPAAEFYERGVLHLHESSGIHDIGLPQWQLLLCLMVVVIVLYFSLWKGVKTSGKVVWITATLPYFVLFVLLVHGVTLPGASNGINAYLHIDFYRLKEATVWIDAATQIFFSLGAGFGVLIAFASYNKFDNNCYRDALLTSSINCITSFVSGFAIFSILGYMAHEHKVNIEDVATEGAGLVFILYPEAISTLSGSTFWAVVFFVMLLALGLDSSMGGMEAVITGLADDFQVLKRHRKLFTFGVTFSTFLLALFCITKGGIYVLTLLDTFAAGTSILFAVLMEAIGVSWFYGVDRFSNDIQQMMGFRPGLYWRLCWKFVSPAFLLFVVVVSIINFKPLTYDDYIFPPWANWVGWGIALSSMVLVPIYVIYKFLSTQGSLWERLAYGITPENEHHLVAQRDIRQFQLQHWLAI
# [7] = target: T3, Sodium-dependent serotonin transporter (Homo sapiens, UniProt P31645); assay: Compound was evaluated for binding affinity using [125I]RTI-55 as a radioligand in HEK-hSERT cells expressing human serotonin transporter; type: cell-based
# T3 sequence (P31645 whole entry): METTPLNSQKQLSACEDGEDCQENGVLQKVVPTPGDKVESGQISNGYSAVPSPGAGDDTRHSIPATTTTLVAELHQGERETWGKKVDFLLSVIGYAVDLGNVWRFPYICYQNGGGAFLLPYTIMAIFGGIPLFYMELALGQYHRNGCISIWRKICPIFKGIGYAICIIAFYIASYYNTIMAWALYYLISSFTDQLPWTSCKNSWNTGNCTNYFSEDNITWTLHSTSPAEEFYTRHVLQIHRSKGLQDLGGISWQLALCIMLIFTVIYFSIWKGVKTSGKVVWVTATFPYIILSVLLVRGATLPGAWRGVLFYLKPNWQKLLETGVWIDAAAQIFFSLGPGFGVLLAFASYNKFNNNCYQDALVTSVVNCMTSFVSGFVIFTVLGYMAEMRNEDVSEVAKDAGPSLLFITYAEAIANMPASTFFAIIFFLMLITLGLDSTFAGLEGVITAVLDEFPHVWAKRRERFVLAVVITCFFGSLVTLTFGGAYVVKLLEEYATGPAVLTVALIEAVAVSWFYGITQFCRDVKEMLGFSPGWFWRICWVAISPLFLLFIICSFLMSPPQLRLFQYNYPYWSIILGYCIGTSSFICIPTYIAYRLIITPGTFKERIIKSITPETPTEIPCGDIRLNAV
# [8] = target: T2, Sodium-dependent noradrenaline transporter; assay: Compound was evaluated for binding affinity using [125I]RTI-55 as a radioligand in HEK-hNET cells expressing human norepinephrine transporter; type: cell-based
# [9] = target: T3, Sodium-dependent serotonin transporter; assay: Compound was evaluated for inhibition of [3H]5-HT uptake in HEK-hSERT cells expressing Human serotonin transporter; type: cell-based
# Sequence of Sodium-dependent dopamine transporter (Rattus norvegicus, UniProt P23977) (P23977 whole entry): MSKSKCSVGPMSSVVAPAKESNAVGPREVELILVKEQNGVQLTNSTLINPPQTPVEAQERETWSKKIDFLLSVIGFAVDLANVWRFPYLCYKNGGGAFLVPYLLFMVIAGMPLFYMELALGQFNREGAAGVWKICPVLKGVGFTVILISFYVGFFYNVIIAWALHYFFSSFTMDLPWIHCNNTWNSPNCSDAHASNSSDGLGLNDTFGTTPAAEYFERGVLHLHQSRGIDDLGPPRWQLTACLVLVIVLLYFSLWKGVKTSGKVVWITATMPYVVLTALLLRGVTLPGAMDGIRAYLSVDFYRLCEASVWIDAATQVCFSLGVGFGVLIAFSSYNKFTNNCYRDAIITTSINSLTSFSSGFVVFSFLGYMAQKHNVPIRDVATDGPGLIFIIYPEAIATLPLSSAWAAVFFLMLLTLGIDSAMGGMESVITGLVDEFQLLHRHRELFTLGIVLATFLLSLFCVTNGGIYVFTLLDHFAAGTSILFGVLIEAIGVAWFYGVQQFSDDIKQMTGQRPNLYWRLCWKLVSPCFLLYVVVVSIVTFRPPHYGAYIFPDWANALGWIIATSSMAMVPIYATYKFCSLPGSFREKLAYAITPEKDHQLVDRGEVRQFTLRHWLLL
Compound,Ki [1],Ki [2],Ki [3],Ki [4],Ki [5],Ki [6],Ki [7],Ki [8],Ki [9]
COC(=O)[C@H]1C2CC[C@@H]3C[C@@H]1/C(=C/c1ccc(F)cc1)CN23,6620 nM,584 nM,335 nM,,,,,,
COC(=O)[C@H]1C2CC[C@@H]3C[C@@H]1/C(=C/c1ccccc1)CN23,481 nM,53 nM,1140 nM,910 nM,1570 nM,68 nM,2330 nM,1040 nM,2400 nM
COC(=O)[C@H]1C2CC[C@@H]3C[C@@H]1/C(=C/c1ccc(-c4ccccc4)cc1)CN23,477 nM,12 nM,614 nM,,,,,,
COC(=O)[C@H]1C2CC[C@@H]3C[C@@H]1/C(=C/c1cccs1)CN23,268 nM,26 nM,2050 nM,,,,,,
COC(=O)[C@H]1C2CC[C@@H]3C[C@@H]1/C(=C/c1ccoc1)CN23,1880 nM,164 nM,498 nM,,,,,,
COC(=O)[C@H]1C2CC[C@@H]3C[C@@H]1/C(=C/c1ccc(OC)cc1)CN23,3130 nM,187 nM,56 nM,3700 nM,3600 nM,208 nM,42 nM,5440 nM,53 nM
CC(=O)OC[C@H]1C2CC[C@@H]3C[C@@H]1/C(=C/c1ccccc1)CN23,1030 nM,450 nM,1050 nM,,,,,,
OC[C@H]1C2CC[C@@H]3C[C@@H]1/C(=C/c1ccc(Cl)c(Cl)c1)CN23,21300 nM,10500 nM,96 nM,,,,,,
COC(=O)[C@H]1C2CC[C@@H]3C[C@@H]1/C(=C/c1ccc(Cl)c(Cl)c1)CN23 (stereo in doubt; 5b),1920 nM,1000 nM,20 nM,> 10000 nM,3320 nM,640 nM,0.56 nM,3770 nM,30 nM
OC[C@H]1C2CC[C@@H]3C[C@@H]1/C(=C/c1ccccc1)CN23,9690 nM,2830 nM,5300 nM,,,,,,
COC(=O)[C@H]1C2CC[C@@H]3C[C@@H]1/C(=C/c1cccc4ccccc14)CN23,9720 nM,5370 nM,121 nM,,,,,,
COC(=O)[C@H]1C2CC[C@@H]3C[C@@H]1/C(=C\c1ccccc1)CN23,5070 nM,1530 nM,7480 nM,,,,,,
COC(=O)[C@H]1C2CC[C@@H]3C[C@@H]1/C(=C/c1ccco1)CN23,2020 nM,111 nM,3680 nM,,,,,,
